Columns and labels:
PC-3 cells = assay: Colony formation assay, PC-3; assay type: cell-based
Experimental: (§1) For shRNA growth experiments, 500 UM-UC-3 cells were seeded in a 12-well plate 48 hours post-transduction and cultured for 8-10 days at 37°C in 5% CO2. Cells were fixed with 4% paraformaldehyde in PBS, washed twice with PBS, and stained with a crystal violet solution (1% crystal violet, 10% ethanol in water). Stained cells were washed thrice with water, and imaged after drying on a GelCount colony counter (Oxford Optronix Ltd., Oxford, UK). Total staining intensity per well was determined by lysis of cells with 200 µl of Triton X-100 lysis buffer (1% Triton X-100, 50 mM Tris-HCl pH 7.4, 150 mM NaCl, 1 mM EDTA). Lysates (100 µl) from each well were transferred to a clear 96-well plate and absorbance at 560 nm was determined on an Envision microplate reader. IC50 values were determined using GraphPad Prism software. For compound treated PC-3 and UM-UC-3, cells were seeded and stained as above, but were incubated with various concentrations of test compound or DMSO one day after seeding.
(§2) Translational models were also explored for PIM dependency using shRNA knockdown. The UM-UC-3 urinary epithelial bladder carcinoma cell line was used to verify and validate dependency on PIM-1 for growth.

[1] = tested on: ML-2 cells (wild-type FLT3); assay: ML-2 mouse xenograft study; assay type: in vivo; details: ML-2 xenografts (wild-type FLT3)
Description: (§3) Male and female Nu/Nu mice were purchased from Harlan Sprague Dawley (Indianapolis, IN). Female Nu/Nu mice were used for all xenograft evaluations with the exception of the PC-3 xenografts where male Nu/Nu mice were used. Cell lines were expanded In vitro in complete media, and if adherent were harvested by trypsin-EDTA, centrifuged and resuspended in PBS 1:1 with Matrigel (BD Bioscienes). Cells were inoculated subcutaneously in the right hind flank of mice. When tumors reached 100-200 mm^3 by caliper measurement, mice were randomized and dosing of SGI-9481 or vehicle control began and continued every day for 5 days (QDx5) with 2 days off for 18-21 days. Tumor volumes and body weights were determined twice a week, and tumor weights were measured at the completion of the translational xenograft studies.

NIH-3T3/PIM-2 = NIH-3T3/PIM-2 over-expression tumor xenograft; assay type: in vivo, mouse
Description: as §3
(§4) . The prostate cancer cell line 22RV1 engineered to over-express PIM-1 as previously described (Mumenthaler, et al, Mol. Cancer Ther., 2009, 8(10)2882-93) was evaluated in vivo. A second model engineered to over-express PIM-2 was established using the NIH-3T3 mouse fibroblast cell line. […]. […].

UM-UC-3 = assay: Established UM-UC-3 mouse xenograft tumors; assay type: in vivo
Description: as §3

22RV1/PIM-1 = 22RV1/PIM-1 over-expression tumor xenograft; assay type: in vivo, mouse
Description: as §3, §4

[2] = tested on: phosphatidyl inositol-3-kinase (PI3K) family; assay: Selectivity study; assay type: biochemical; details: data not given
PC-3 = assay: Established PC-3 mouse xenograft tumors; assay type: in vivo
Description: as §3

MV-4-11 (FLT3-ITD) = assay: MV-4-11 mouse xenograft study; assay type: in vivo; details: MV-4-11 xenografts (FLT3-ITD)
Description: as §3

UM-UC-3 cells = assay: Colony formation assay, UM-UC-3; assay type: cell-based
Experimental: as §1, §2

[3] = 125 mg/kg, less than with 200 mg/kg

For `CC(C)(O)[C@H]1CC[C@H](Nc2ccc3ncc(-c4cccc(C(F)(F)F)c4)n3n2)CC1` [8-31], the colony growth (PC-3 cells) was “reduced colony growth”, the tumor growth inhibition [1] was “significant tumor growth inhibition” and the subcutaneous tumor growth (NIH-3T3/PIM-2; NIH-3T3/PIM-2 + compound vs. NIH-3T3/PIM-2 + vehicle) was “significantly inhibited”. For the same compound, the body weight (NIH-3T3/PIM-2; NIH-3T3/PIM-2 xenograft mice) was “No significant changes in body weight”, the tumor growth inhibition (UM-UC-3; [3]) was “significant tumor growth inhibition” and the “body weight or gross adverse toxicity” value (UM-UC-3; oral dosing of 200 mg/kg) was “no significant changes in body weight or gross adverse toxicity”. The “tumor growth measured by volume (caliper) and by final tumor weight” value (UM-UC-3; oral dosing of 200 mg/kg) was “significantly reduced”, the subcutaneous tumor growth (22RV1/PIM-1; 22RV1/PIM-1 + compound vs. 22RV1/PIM-1 + vehicle) was “significantly reduced” and the body weight (22RV1/PIM-1; 22RV1/PIM-1 xenograft mice) was “No significant changes in body weight”. For the same compound, the “inhibitory activity against multiple members of the PI3K family” value [2] was “inhibitory activity”, the tumor growth inhibition (PC-3; [3]) was “significant tumor growth inhibition” and the “plasma and tumor tissue levels” value (PC-3; PC-3 tumor-burdened mice, 200 mg/kg) was “above the in vitro proliferation EC50”. For the same compound, the “body weight or gross adverse toxicity” value (PC-3; oral dosing of 200 mg/kg) was “no significant changes in body weight or gross adverse toxicity”, the “tumor growth measured by volume (caliper) and by final tumor weight” value (PC-3; oral dosing of 200 mg/kg) was “significantly reduced” and the “effect on established xenografts” value (MV-4-11 (FLT3-ITD)) was “induced regressions”. The colony growth (UM-UC-3 cells) was “reduced colony growth”.

Source: patent EP3409278B1, “HETEROCYCLIC PROTEIN KINASE INHIBITORS” (Tolero Pharmaceuticals, Inc., priority 2011, dated 2013)
